Experimental findings from US8268990B2, “Compounds” (AstraZeneca AB, priority 2007, dated 2012) are described below.

The experiment has as its target T1, Recombinant human TLR7 (Homo sapiens, UniProt Q9NYK1).
T1 construct: expressed in transfected cells; host or cells: HEK293 cell line stably expressing the pNiFty2-SEAP reporter plasmid; TLR7 in vector pUNO, blasticidin selection
T1 sequence (Q9NYK1 27-1049): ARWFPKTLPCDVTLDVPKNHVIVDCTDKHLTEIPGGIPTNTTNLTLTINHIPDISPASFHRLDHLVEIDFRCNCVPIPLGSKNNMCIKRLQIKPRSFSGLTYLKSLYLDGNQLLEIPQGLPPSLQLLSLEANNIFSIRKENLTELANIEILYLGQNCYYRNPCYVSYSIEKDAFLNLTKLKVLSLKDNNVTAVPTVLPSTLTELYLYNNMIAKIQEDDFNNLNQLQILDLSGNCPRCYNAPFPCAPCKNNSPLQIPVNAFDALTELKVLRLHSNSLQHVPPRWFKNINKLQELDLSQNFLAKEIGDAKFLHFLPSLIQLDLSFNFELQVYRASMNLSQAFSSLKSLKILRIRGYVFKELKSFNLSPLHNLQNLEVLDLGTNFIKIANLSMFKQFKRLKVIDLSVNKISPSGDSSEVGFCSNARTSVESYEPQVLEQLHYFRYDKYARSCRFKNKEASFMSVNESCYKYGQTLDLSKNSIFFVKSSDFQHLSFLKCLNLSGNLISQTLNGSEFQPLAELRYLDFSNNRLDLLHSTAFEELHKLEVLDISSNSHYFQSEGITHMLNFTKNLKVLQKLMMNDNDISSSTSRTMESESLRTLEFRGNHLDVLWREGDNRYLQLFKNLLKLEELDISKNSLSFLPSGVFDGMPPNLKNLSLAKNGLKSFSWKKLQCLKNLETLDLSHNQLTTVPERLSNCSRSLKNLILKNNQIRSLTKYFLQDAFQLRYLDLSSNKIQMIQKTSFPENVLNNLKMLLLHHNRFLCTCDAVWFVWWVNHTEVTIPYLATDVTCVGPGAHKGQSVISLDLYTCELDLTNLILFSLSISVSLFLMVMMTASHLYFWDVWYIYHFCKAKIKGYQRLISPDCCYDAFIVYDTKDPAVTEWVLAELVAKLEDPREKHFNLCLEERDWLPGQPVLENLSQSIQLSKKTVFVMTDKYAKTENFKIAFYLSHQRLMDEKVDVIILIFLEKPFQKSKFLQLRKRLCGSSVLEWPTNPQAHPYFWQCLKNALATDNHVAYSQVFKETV
In words: Human TLR7 Assay (SEAP reporter).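 Also: SEAP driven by an NFkB-responsive composite promoter, pEC50 read at half of each compound's own maximal SEAP induction.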 It is filed as cell-based. The conditions noted are these: HEK293 cell line stably expressing human TLR7 and pNiFty2-SEAP reporter; SEAP induction after overnight incubation at 37° C., 0.1% (v/v) DMSO.
From the text: Recombinant human TLR7 was stably expressed in a HEK293 cell line already stably expressing the pNiFty2-SEAP reporter plasmid; integration of the reporter gene was maintained by selection with the antibiotic zeocin. The most common variant sequence of human TLR7 (represented by the EMBL sequence AF240467) was cloned into the mammalian cell expression vector pUNO and transfected into this reporter cell-line. Transfectants with stable expression were selected using the antibiotic blasticidin. In this reporter cell-line, expression of secreted alkaline phosphatase (SEAP) is controlled by an NFkB/ELAM-1 composite promoter comprising five NFkB sites combined with the proximal ELAM-1 promoter. TLR signaling leads to the translocation of NFkB and activation of the promoter results in expression of the SEAP gene. TLR7-specific activation was assessed by determining the level of SEAP produced following overnight incubation of the cells at 37° C. with the standard compound in the presence of 0.1% (v/v) dimethylsulfoxide (DMSO). Concentration dependent induction of SEAP production by compounds was expressed as the concentration of compound which produced half of the maximal level of SEAP induction for that compound (pEC50).
One may read the EC50 as the concentration at which the effect is half-maximal. Take `CCCCCNc1nc(N)nc(C)c1Cc1ccc(CC(=O)OCC2CCN(C)CC2)cc1` [Example 60, (1-Methylpiperidin-4-yl)methyl 2-(4-((2-amino-4-methyl-6-(pentylamino)pyrimidin-5-yl)methyl)phenyl)acetate]: the concentration for a half-maximal effect (EC50) was 200 nM.

For the compound `CCCCCNc1nc(N)nc(C)c1Cc1cccc(CC(=O)OCCCCN2CCCC2)c1` [Example 84, 4-(Pyrrolidin-1-yl)butyl 2-(3-((2-amino-4-methyl-6-(pentylamino)pyrimidin-5-yl)methyl)phenyl)acetate], the EC50 was 316 nM.

Consider `CCCC[C@@H](CCO)Nc1nc(N)nc(C)c1Cc1ccc(CC(=O)OC)cc1F` [Example 33, (S)-Methyl 2-(4-((2-amino-4-(1-hydroxyheptan-3-ylamino)-6-methylpyrimidin-5-yl)methyl)-3-fluorophenyl)acetate], for which the EC50 was 50.1 nM.

Consider `CCCCCNc1nc(N)nc(C)c1CCCN(Cc1ccc(CC(=O)OC)cc1)C(=O)CN1CCC(c2ccccc2)CC1` [Example 28, Methyl 2-(4-((N-(3-(2-amino-4-methyl-6-(pentylamino)pyrimidin-5-yl)propyl)-2-(4-phenylpiperidin-1-yl)acetamido)methyl)phenyl)acetate], for which the EC50 was 1260 nM.

As to `CCCCCNc1nc(N)nc(C)c1Cc1ccc(CC(=O)OCC(C)(C)CN(C)C)cc1` [Example 55, 3-(Dimethylamino)-2,2-dimethylpropyl 2-(4-((2-amino-4-methyl-6-(pentylamino)pyrimidin-5-yl)methyl)phenyl)acetate], the EC50 was 126 nM.

Consider `CCCCCNc1nc(N)nc(C)c1CCCN(Cc1cccc(CC(=O)OC)c1)C(=O)CCC(=O)OC` [Example 11, Methyl 4-((3-(2-amino-4-methyl-6-(pentylamino)pyrimidin-5-yl)propyl)(3-(2-methoxy-2-oxoethyl)benzyl)amino)-4-oxobutanoate], for which the EC50 is 1000 nM.

In the case of `CCCCNc1nc(N)nc(C)c1Cc1ccc(CC(=O)OC)cc1` [Example 41, Methyl 2-(4-((2-amino-4-(butylamino)-6-methylpyrimidin-5-yl)methyl)phenyl)acetate], the EC50 was 1000 nM.

In the case of `CCCCCNc1nc(N)nc(C)c1Cc1ccc(CC(=O)OCCCCN2CCC(N(C)C)CC2)cc1` [Example 68, 4-(4-(Dimethylamino)piperidin-1-yl)butyl 2-(4-((2-amino-4-methyl-6-(pentylamino)pyrimidin-5-yl)methyl)phenyl)acetate], the EC50 was 631 nM.

Turning to `CCCCCNc1nc(N)nc(C)c1CCCNCc1cccc(CC(=O)OC)c1` [Example 1, Methyl 2-(3-((3-(2-Amino-4-methyl-6-(pentylamino)pyrimidin-5-yl)propylamino)methyl)phenyl)acetate], the EC50 is 501 nM.

For `CCCCNc1nc(N)nc(C)c1Sc1ccc(CC(=O)OCCCCN2CCCC2)cc1` [Example 96, 4-(Pyrrolidin-1-yl)butyl 2-(4-(2-amino-4-(butylamino)-6-methylpyrimidin-5-ylthio)phenyl)acetate], the EC50 was 50.1 nM.

In the case of `CCCCCNc1nc(N)nc(C)c1Cc1ccc(CC(=O)OCCCCN2CCN(C)CC2)cc1` [Example 63, 4-(4-Methylpiperazin-1-yl)butyl 2-(4-((2-amino-4-methyl-6-(pentylamino)pyrimidin-5-yl)methyl)phenyl)acetate], the EC50 is 158 nM.

Turning to `CCCCCNc1nc(N)nc(C)c1CCCN(Cc1cccc(CC(=O)OC)c1)C(=O)CCCN(C)C` [Example 12, Methyl 2-(3-((N-(3-(2-amino-4-methyl-6-(pentylamino)pyrimidin-5-yl)propyl)-4-(dimethylamino)butanamido)methyl)phenyl)acetate], the EC50 is 1580 nM.

Take `CCC[C@@H](CCO)Nc1nc(N)nc(C)c1Cc1ccc(CC(=O)OC)cc1F` [Example 45, (S)-Methyl 2-(4-((2-amino-4-(1-hydroxyhexan-3-ylamino)-6-methylpyrimidin-5-yl)methyl)-3-fluorophenyl)acetate]: the EC50 is 50.1 nM.

Take `CCCC[C@@H](CO)Nc1nc(N)nc(C)c1Cc1ccc(CC(=O)OC)cc1` [Example 44, (S)-Methyl 2-(4-((2-amino-4-(1-hydroxyhexan-2-ylamino)-6-methylpyrimidin-5-yl)methyl)phenyl)acetate]: the EC50 was 631 nM.

For `CCCCCNc1nc(N)nc(C)c1Cc1ccc(CC(=O)OCCN(C)C)cc1` [Example 36, 2-(Dimethylamino)ethyl 2-(4-((2-amino-4-methyl-6-(pentylamino)pyrimidin-5-yl)methyl)phenyl)acetate], the EC50 was 251 nM.

For the compound `CCC[C@@H](CCO)Nc1nc(N)nc(C)c1Cc1ccc(CC(=O)OCCCCN(C)C)cc1` [Example 94, (S)-4-(Dimethylamino)butyl 2-(4-((2-amino-4-(1-hydroxyhexan-3-ylamino)-6-methylpyrimidin-5-yl)methyl)phenyl)acetate], the EC50 is 126 nM.

On to `CCCC[C@@H](CCO)Nc1nc(N)nc(C)c1Cc1ccc(CC(=O)OC)cc1` [Example 50, (S)-Methyl 2-(4-((2-amino-4-(1-hydroxyheptan-3-ylamino)-6-methylpyrimidin-5-yl)methyl)phenyl)acetate], for which the EC50 was 158 nM.

As for `CCCCCNc1nc(N)nc(C)c1CCCN(Cc1ccc(CC(=O)OC)cc1)C(=O)CN(C)CCOC` [Example 15, Methyl 2-(4-((N-(3-(2-amino-4-methyl-6-(pentylamino)pyrimidin-5-yl)propyl)-2-((2-methoxyethyl)(methyl)amino)acetamido)methyl)phenyl)acetate], the EC50 was 398 nM.

As to `CCCCNc1nc(N)nc(C)c1Sc1ccc(CC(=O)OCC2CCN(C)CC2)cc1` [Example 95, (1-Methylpiperidin-4-yl)methyl 2-(4-(2-amino-4-(butylamino)-6-methylpyrimidin-5-ylthio)phenyl)acetate], the EC50 was 63.1 nM.

Regarding `CCC[C@@H](CCO)Nc1nc(N)nc(C)c1Cc1ccc(CC(=O)OC)cc1` [Example 49, (S)-Methyl 2-(4-((2-amino-4-(1-hydroxyhexan-3-ylamino)-6-methylpyrimidin-5-yl)methyl)phenyl)acetate], the EC50 is 200 nM.

`CCCCCNc1nc(N)nc(C)c1Cc1cccc(CC(=O)OCC2CCN(C)CC2)c1` [Example 85, (1-Methylpiperidin-4-yl)methyl 2-(3-((2-amino-4-methyl-6-(pentylamino)pyrimidin-5-yl)methyl)phenyl)acetate]: the EC50 is 501 nM.

Consider `CCCCCNc1nc(N)nc(C)c1Cc1ccc(CC(=O)OC)cc1OC` [Example 21, Methyl 2-(4-((2-amino-4-methyl-6-(pentylamino)pyrimidin-5-yl)methyl)-3-methoxyphenyl)acetate], for which the EC50 is 15.8 nM.

For `CCC[C@@H](CCO)Nc1nc(N)nc(C)c1Cc1ccc(CC(=O)OCC2CCN(C)CC2)cc1F` [Example 74, (S)-(1-Methylpiperidin-4-yl)methyl 2-(4-((2-amino-4-(1-hydroxyhexan-3-ylamino)-6-methylpyrimidin-5-yl)methyl)-3-fluorophenyl)acetate], the EC50 is 39.8 nM.

With `CCC[C@@H](CCO)Nc1nc(N)nc(C)c1Cc1ccc(CC(=O)OCCCCN(C)C)cc1F` [Example 86, (S)-4-(Dimethylamino)butyl 2-(4-((2-amino-4-(1-hydroxyhexan-3-ylamino)-6-methylpyrimidin-5-yl)methyl)-3-fluorophenyl)acetate], the EC50 is 200 nM.

In the case of `CCCCCNc1nc(N)nc(C)c1CCCN(Cc1cccc(CC(=O)OC)c1)S(=O)(=O)c1cn(C)cn1` [Example 14, Methyl 2-(3-((N-(3-(2-amino-4-methyl-6-(pentylamino)pyrimidin-5-yl)propyl)-1-methyl-1H-imidazole-4-sulfonamido)methyl)phenyl)acetate], the EC50 was 1260 nM.

In the case of `CCCCNc1nc(N)nc(C)c1Cc1ccc(CC(=O)OCC2CCN(C)CC2)cc1` [Example 69, (1-Methylpiperidin-4-yl)methyl 2-(4-((2-amino-4-(butylamino)-6-methylpyrimidin-5-yl)methyl)phenyl)acetate], the EC50 is 126 nM.

With `CCCCCNc1nc(N)nc(C)c1Cc1ccc(CC(=O)OCCN2CCOCC2)cc1` [Example 35, 2-Morpholinoethyl 2-(4-((2-amino-4-methyl-6-(pentylamino)pyrimidin-5-yl)methyl)phenyl)acetate], the 50% effective concentration (EC50) is 251 nM.

Take `CCCCCNc1nc(N)nc(C)c1CCCNCc1cccc(OCC(=O)OC)c1` [Example 25, Methyl 2-(3-((3-(2-amino-4-methyl-6-(pentylamino)pyrimidin-5-yl)propylamino)methyl)phenoxy)acetate]: the EC50 is 794 nM.
